Reference: US20230040770A1, “HETEROCYCLIC COMPOUND AND USE THEREOF” (TAKEDA PHARMACEUTICAL COMPANY LIMITED, priority 2019, published 2023)

How the values were obtained:
cynomolgus monkeys = test: Evaluation of wake-promoting effects in cynomolgus monkeys (EEG/EMG); type: in vivo, cynomolgus monkey; settings: Macaca fascicularis, po, time spent in wakefulness for 4 h after administration, read-out: Wakefulness time (% of vehicle treatment) (Mean); for response vs control in vivo at 3 mg/kg: 3 mg/kg p.o. at ZT12; for response vs control in vivo at 10 mg/kg: 10 mg/kg p.o. at ZT12
Protocol: The wake-promoting effects were evaluated by measuring the electroencephalogram (EEG) and electromyogram (EMG) in cynomolgus monkeys. Under isoflurane anesthesia (1-5%, Pfizer Japan Inc., Tokyo, Japan), male cynomolgus monkeys (3-5 years old, Hamri Co., Ltd., Ibaraki, Japan) were surgically implanted with radio-telemetry transmitters (TL10M3-D70-EEE, Data Sciences International Inc., MN, USA). EEG electrodes were screwed into the skull at the parietal area. EMG electrodes were implanted on the cervical muscles. After the surgery, each monkey was given penicillin (100,000 units/head, i.m., Meiji Seika Pharma Co., Ltd., Tokyo, Japan), buprenorphine (0.02 mg/kg, i.m., Otsuka Pharmaceutical Co., Ltd., Tokyo, Japan) and prednisolone (1 mg/kg, s.c., Kyoritsu Seiyaku Co., Ltd., Tokyo, Japan) daily for one week. After at least a 1-month recovery period in home cages, the monkeys were habituated to the recording chamber placed in a soundproof room. EEG and EMG signals were recorded using the telemetry system (Dataquest ART software, Data Sciences International Inc., MN, USA) and the signals were analyzed using SleepSign software (Kissei Comtec Co., Ltd., Nagano, Japan). After confirming long sleep in dark phase in the experimental room, we used animals to examine the wake-promoting effect of compounds.
Oral test compounds (3 or 10 mg/kg) suspended in 0.5% methylcellulose aqueous solution, or vehicle (i.e., 0.5% methylcellulose aqueous solution) was administered orally (p.o.) to monkeys at zeitgeber time 12 (ZT12) in a volume of 5 mL/kg body weight in cross-over design or pre-post design (n=1-4). EEG and EMG recordings were performed for 4 h after the compound administration. The time spent in wakefulness for 4 h after administration (% of vehicle treatment) was calculated by using SleepSign.
Parenteral test compounds (0.1 or 0.3 mg/kg) dissolved in a mixed solution comprising 5% DMSO, 5% Cremophor EL, 20% PEG400 and 70% soluplus (1% (w/v)), or vehicle (i.e., a mixed solution comprising 5% DMSO, 5% Cremophor EL, 20% PEG400 and 70% soluplus (1% (w/v))) was administered subcutaneously (s.c.) to monkeys at ZT12 in a volume of 0.5 mL/kg body weight in a pre-post design (n=1-2). EEG and EMG recordings were performed for 4 h after the compound administration. The time spent in wakefulness for 4 h after administration (% of vehicle treatment) was calculated by using SleepSign.

[1] = Evaluation of microsome stability in human; type: in vitro ADME; settings: pH 7.4; in vitro intrinsic metabolic clearance; human liver microsomes 0.2 mg/mL, 1 μmol/L test compound, NADPH-generating system
Protocol: Human liver microsomes were purchased from Xenotech, LLC (Lenexa, Kans.). An incubation mixture consisted of microsomes in 50 mmol/L KH2PO4—K2HPO4 phosphate buffer (pH 7.4) and 1 μmol/L test compound. The concentration of microsomal protein was 0.2 mg/mL. An NADPH-generating system (5 mmol/L MgCl2, 5 mmol/L glucose-6-phosphate, 0.5 mmol/L beta-NADP+ and 1.5 unit/mL glucose-6-phosphate dehydrogenase) was added to the incubation mixture with a half volume of the reaction mixture to initiate the enzyme reaction. The reaction was terminated 15 and 30 minutes after the initiation of the reaction by mixing the reaction mixture with acetonitrile, followed by centrifugation at 2500 rpm for 10 min. The supernatant was subjected to LC/MS/MS analysis. The metabolic rate constant was calculated as the slope of the remaining rate-time plot. The in vitro intrinsic metabolic clearance was calculated by dividing initial metabolic rate constant by microsomal protein in the incubation mixture.

[2] = target: T1, human orexin type 2 receptor (Homo sapiens, UniProt O43614); test: Measurement of orexin type 2 receptor agonist activity (calcium indicator fluorescence, CHO cells forcibly expressing human OX2 receptor); type: cell-based; settings: compound at 3 μM; 0% = DMSO, 100% = orexin A (human) 10 nM
T1 construct: expressed in transfected cells
T1 sequence (O43614 1-444): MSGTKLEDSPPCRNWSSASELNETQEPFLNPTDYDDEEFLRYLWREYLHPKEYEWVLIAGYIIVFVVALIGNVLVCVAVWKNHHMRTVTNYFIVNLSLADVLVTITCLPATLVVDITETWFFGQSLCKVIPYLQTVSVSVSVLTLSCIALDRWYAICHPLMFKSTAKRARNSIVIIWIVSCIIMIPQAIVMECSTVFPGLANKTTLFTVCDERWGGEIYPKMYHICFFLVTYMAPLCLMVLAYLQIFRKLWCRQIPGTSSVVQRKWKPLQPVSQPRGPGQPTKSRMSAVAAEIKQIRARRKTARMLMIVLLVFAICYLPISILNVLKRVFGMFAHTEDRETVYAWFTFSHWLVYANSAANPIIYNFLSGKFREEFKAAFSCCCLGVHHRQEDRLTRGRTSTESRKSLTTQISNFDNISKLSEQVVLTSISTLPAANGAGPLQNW
Outline: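 CHO-dhfr cells stably expressing human OX2R, loaded with Fluo-4 AM (30 min 37 °C, then 30 min RT), then given test compound. Calcium fluorescence read by FDSS over ~2 min. Activity (%) scaled from DMSO (0%) to 10 nM final orexin A (100%).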

SMILES | response vs control in vivo at 3 mg/kg (cynomolgus monkeys) [%] | microsomal CLint at 1 μmol/L [1] [µL/min/mg] | OX2R agonist activity (3 μM, %) [2] [%] | response vs control in vivo at 10 mg/kg (cynomolgus monkeys) [%]
CCS(=O)(=O)N[C@@H]1[C@H](Cc2cccc(-c3cc(F)ccc3F)c2F)N(C(=O)C(C)(C)O)CC1(F)F [Example 67, N-{(2S,3R)-4,4-difluoro-1-(2-hydroxy-2-methylpropanoyl)-2-[(2,2′,5′-trifluoro[1,1′-biphenyl]-3-yl)methyl]pyrrolidin-3-yl}ethanesulfonamide] | 356 | 4 | 111 | –
CS(=O)(=O)N[C@@H]1[C@H](Cc2cccc(-c3cc(F)cc(F)c3)c2F)N(C(=O)C23CC(C2)C3)CC1(F)F [Example 87, N-{(2S,3R)-1-(bicyclo[1.1.1]pentane-1-carbonyl)-4,4-difluoro-2-[(2,3′,5′-trifluoro[1,1′-biphenyl]-3-yl)methyl]pyrrolidin-3-yl}methanesulfonamide] | 832 | 9 | 93 | –
CS(=O)(=O)N[C@@H]1[C@H](Cc2cccc(-c3cc(F)cc(F)c3)c2F)N(C(=O)[C@H]2CCO2)CC1(F)F [Example 91, N-{(2S,3R)-4,4-difluoro-1-((2R)-oxetane-2-carbonyl)-2-[(2,3′,5′-trifluoro[1,1′-biphenyl]-3-yl)methyl]pyrrolidin-3-yl}methanesulfonamide] | – | 65 | 94 | 548
CCS(=O)(=O)N[C@@H]1[C@H](Cc2cccc(-c3cccc(F)c3)c2F)N(C(=O)C(C)C)CC1(F)F [Example 94, N-[(2S,3R)-2-[(2,3′-difluoro[1,1′-biphenyl]-3-yl)methyl]-4,4-difluoro-1-(2-methylpropanoyl)pyrrolidin-3-yl]ethanesulfonamide] | 442 | 44 | 99 | –
CCS(=O)(=O)N[C@@H]1[C@H](Cc2cccc(-c3cc(F)cc(F)c3)c2F)N(C(=O)C2CC2)CC1(F)F [Example 144, N-{(2S,3R)-1-(cyclopropanecarbonyl)-4,4-difluoro-2-[(2,3′,5′-trifluoro[1,1′-biphenyl]-3-yl)methyl]pyrrolidin-3-yl}ethanesulfonamide] | 649 | 13 | 88 | –
CCS(=O)(=O)N[C@@H]1[C@H](Cc2cccc(-c3cc(F)cc(F)c3)c2F)N(C(=O)C(C)C)CC1(F)F [Example 146, N-{(2S,3R)-4,4-difluoro-1-(2-methylpropanoyl)-2-[(2,3′,5′-trifluoro[1,1′-biphenyl]-3-yl)methyl]pyrrolidin-3-yl}ethanesulfonamide] | 426 | 83 | 92 | –
CCS(=O)(=O)N[C@@H]1[C@H](Cc2cccc(-c3cccc(F)c3)c2F)N(C(=O)[C@H]2C[C@H](F)C2)CC1(F)F [Example 225, N-[(2S,3R)-2-[(2,3′-difluoro[1,1′-biphenyl]-3-yl)methyl]-4,4-difluoro-1-((1r,3S)-3-fluorocyclobutane-1-carbonyl)pyrrolidin-3-yl]ethanesulfonamide] | 318 | 60 | 96 | –
CCS(=O)(=O)N[C@H]1[C@@H](F)CN(C(=O)C2CC2)[C@H]1Cc1cccc(-c2cc(F)cc(F)c2)c1F [Example 236, N-{(2S,3R,4S)-1-(cyclopropanecarbonyl)-4-fluoro-2-[(2,3′,5′-trifluoro[1,1′-biphenyl]-3-yl)methyl]pyrrolidin-3-yl}ethanesulfonamide] | – | 67 | 100 | 716
CCS(=O)(=O)N[C@H]1[C@@H](F)CN(C(=O)[C@H]2CCO2)[C@H]1Cc1cccc(-c2ccccc2)c1F [Example 302, N-[(2S,3R,4S)-4-fluoro-2-[(2-fluoro[1,1′-biphenyl]-3-yl)methyl]-1-((2R)-oxetane-2-carbonyl)pyrrolidin-3-yl]ethanesulfonamide] | – | 3 | 85 | 288
CCS(=O)(=O)N[C@@H]1[C@H](Cc2cccc(-c3cc(F)cc(F)c3)c2F)N(C(=O)[C@H]2C[C@H](F)C2)CC1(F)F [Example 375, N-{(2S,3R)-4,4-difluoro-1-((1r,3S)-3-fluorocyclobutane-1-carbonyl)-2-[(2,3′,5′-trifluoro[1,1′-biphenyl]-3-yl)methyl]pyrrolidin-3-yl}ethanesulfonamide] | 396 | 35 | 91 | –
CCS(=O)(=O)N[C@@H]1[C@H](Cc2cccc(-c3cc(F)cc(F)c3)c2F)N(C(=O)[C@H]2C[C@@H](F)C2)CC1(F)F [Example 380, N-{(2S,3R)-4,4-difluoro-1-((1s,3R)-3-fluorocyclobutane-1-carbonyl)-2-[(2,3′,5′-trifluoro[1,1′-biphenyl]-3-yl)methyl]pyrrolidin-3-yl}ethanesulfonamide] | 484 | 39 | 93 | –
CS(=O)(=O)N[C@@H]1[C@H](Cc2cccc(-c3cc(F)cc(F)c3)c2F)N(C(=O)[C@H]2C[C@@H](F)C2)CC1(F)F [Example 433, N-{(2S,3R)-4,4-difluoro-1-(3-fluorocyclobutane-1-carbonyl)-2-[(2,3′,5′-trifluoro[1,1′-biphenyl]-3-yl)methyl]pyrrolidin-3-yl}methanesulfonamide] | 727 | 16 | 101 | –
